Entries after “also recorded” stand apart in the source; their conditions may differ.
Key:
Vα14 NKT cells = details: mice; cited from earlier work
B 16-bearing mice = details: cited from earlier work
[1] = mouse, in vivo; cited from earlier work
P. yoeli = details: α-GalCer alone, cited from earlier work
[2] = in vivo; cited from earlier work
P. yoelii sporozoites [3] = test: Parasite rRNA in the liver after live sporozoite challenge of immunized mice (real-time RT-PCR)
P. berghei = details: mice; α-GalCer alone; cited from earlier work
P. yoelii sporozoites [4] = test: Protection against blood infection (parasitemia in thin blood smears) after challenge with 50 viable sporozoites
Excerpt: To further assess the adjuvant activity of α-GalCer co-administered with vaccines, parasitemia (i.e., the presence of parasites in the blood) was monitored daily by microscopic examination of thin blood smears. Briefly, BALB/c mice were immunized either intravenously with 1×10^4 γ-spz or subcutaneously with 1×10^7 p.f.u. of AdPyCS, doses which otherwise fail to confer protection against malaria, with or without α-GalCer treatment. Two weeks later, all mice were challenged with 50 viable P. yoelii sporozoites, and determined the occurrence of blood infection by monitoring parasitemia.
To determine the adjuvant effect of α-GalCer on the duration of protection against malaria, parasitemia (i.e., the presence of the parasites in the blood) was monitored daily via microscopic inspection of thin blood smears in two separate experiments. In experiment 1, two groups of mice, one treated with α-GalCer and the other untreated, were immunized with 1×10^4 γ-spz, a dose that fails to confer protection against malaria 2 weeks after immunization. Two weeks later, all mice were challenged with 50 viable P. yoelii sporozoites, and the occurrence of blood infection was determined by monitoring parasitemia. In experiment 2, two groups of mice, one treated with α-GalCer and the other untreated, were immunized with 1×10^5 γ-spz, a dose that induces complete protection 2 weeks after immunization but not 4 weeks after. Four weeks later, these immunized mice, as well as naive controls were challenged with 50 live sporozoites, and the course of infection was determined as described above.

[5] = test system: circumsporozoite (CS) protein; test: Anti-CS antibody titers and isotypes by ELISA; assay type: in vivo, P. yoelii; details: γ-spz-immunized mice
Experimental: Sera of immunized mice were obtained prior to their challenge with sporozoites, and the levels of CS-specific IgM, IgG1, IgG2a, and IgE isotypes were measured using the Mouse Hybridoma Subtyping Kit (Boehringer Mannheim, Mannheim, Germany). Briefly, plates were coated with […] of B cell epitope (QGPGAP)2 (Charoenvit et al., J. Immunol., 146: 1020-1025, 1991) of the P. yoelii CS protein, blocked with PBS containing 1% BSA, and incubated for 1 hour with 1:5 dilution of sera from immunized and non-immunized mice. The plates were then washed and anti-mouse IgM, IgG1a, IgG2a (Boehringer Mannheim) and IgE (Southern Biotechnology Associates, Inc., Birmingham, Ala.) conjugated to peroxidase were added, followed by incubation with the substratre 2,2-Azino-di-[3-ethylbenzthiazoline sulfonate (6)], according the manufacture's instruction.
(§1) The present inventors also determined the titers of anti-sporozoite antibodies using an immunofluorescence assay(IFA) of air-dried P. yoelii sporozoites, as well as the titers of antibody against the circumsporozoite (CS) protein, the major surface antigen of sporozoites, using ELISA. The antibody titers were identical among the groups of γ-spz-immunized mice regardless of whether or not they received α-GalCer (FIG. 1A).

[6] = independently of dosage; cited from earlier work
[7] = test system: p18-specific CD8+ T cells (p18 protein of HIV); test: ELISPOT assay of HIV p18-specific CD8+ T cells from immunized mice; details: mice immunized with CD8+ T cell epitope […] of p18 of HIV
Experimental: An ELISPOT assay was performed to determine the number of CS-specific CD4+ and CD8+ T cells, producing IFN-γ or IL-4 (Miyahira et al., J. Immunol. Methods, 181: 45-54, 1995). Briefly, 96 well nitrocellulose plates (Millipore, Bedford, Mass.) were coated with anti-mouse IFN-γ monoclonal antibodies (mAb), or anti-mouse IL-4 mAb. After overnight incubation at room temperature, the wells were washed repeatedly and blocked with culture medium for 1 hour at 37° C. […] After irradiating the peptide-pulsed target cells, the cells were added to the ELISPOT wells. Untreated target cells were used as negative controls. Serially diluted lymphocytes isolated from the spleen or lymph nodes of immunized mice were co-cultured with 1.5×10^5 target cells in the ELISPOT wells. After incubating the plates 24 h for IFN-γ detection or 48 h for IL-4 detection at 37° C. and 5% CO2, the plates were treated as previously described (Rodrigues et al., J. Immunol., 158: 1268-1274, 1997), and the number of spots corresponding to IFN-γ and IL-4 secreting cells determined.

P. yoelii sporozoites [8] = test: Anti-sporozoite antibody titers by indirect immunofluorescence assay (IFA); assay type: in vivo, Plasmodium yoelii; details: γ-spz-immunized BALB/c mice
Experimental: Sera of immunized mice were obtained just before their challenge with sporozoites, and their Ab titers were measured using P. yoelii sporozoites in an indirect immunofluorescence assay (IFA). In brief, P. yoelii sporozoites were placed on multispot glass slides, and air-dried. After 1 hour of incubation with the sera, diluted in PBS containing 1% BSA, the slides were washed with PBS and incubated 1 hour with FITC- labelled affinity purified goat anti-mouse Ab (Kirkegaard & Perry Laboratories, Gaithersburg, Md.). The slides were then washed and mounted in PBS containing 50% (v/v) glycerol and 1% (w/v) Evans blue to reduce bleaching. The highest serum dilution resulting in fluorescence of the sporozoites was considered to be the IFA titer. Measurement of Ab Isotype Level by ELISA.
as §1

[9] = independently of dosage; cited from earlier work; remark: listed apart in the source
[10] = test system: nucleoprotein (NP) of the influenza A virus; test: CD8+ T cell anti-influenza response after recombinant Sindbis virus expressing NP epitope; assay type: in vivo; details: suboptimal dose (10^5 p.f.u.) recombinant Sindbis virus expressing epitope TYQRTRALV, with α-GalCer
Excerpt: In yet another specific embodiment, an antigen of the invention is influenza A virus-specific.

[11] = BALB/c mice, 2 μg α-GalCer, 1×10^4 γ-spz i.v.
[12] = BALB/c mice, i.v. 1 × 10^4 γ-spz or s.c. 1 × 10^7 p.f.u. AdPyCS, with or without α-GalCer, challenge with 50 viable P. yoelii sporozoites two weeks later

CCCCCCCCCCCCCCCCCCCCCC[C@@H](O)C(=O)N[C@@H](COC1OC(CO)C(O)C(O)C1OC1OC(CO)C(O)C(O)C1O)[C@H](O)[C@H](O)CCCCCCCCCCCCCC (stereo partly drawn) [Galα1-2Galα1-1′Cer, (2S,3S,4R)-2-amino-1-O-(α-D-glucopyranosyl-(1-2)-α-D-galactopyranosyl)-N-[(R)-2-hydroxytetracosanoyl]-1,3,4-octadecanetriol]
proliferation of Vα14 NKT cells, compared with α-GalCer (Vα14 NKT cells): stimulate proliferation of Vα14 NKT cells in mice, although with lower efficiency

CCCCCCCCCCCCCCCCCCCCCCCCCC(=O)N[C@@H](COC1OC(COC2OC(CO)C(O)C(O)C2O)C(O)C(O)C1O)[C@H](O)[C@H](O)CCCCCCCCCCCCCC (stereo partly drawn) [Galα1-6Galα1-1′Cer, (2S,3S,4R)-2-amino-1—O-(α-D-galactopyranosyl-(1-6)-α-D-galactopyranosyl)-N-hexacosanoyl-1,3,4-octadecanetriol]
proliferation of Vα14 NKT cells, compared with α-GalCer (Vα14 NKT cells): stimulate proliferation of Vα14 NKT cells in mice, although with lower efficiency

CCCCCCCCCCCCCCCCCCCCCC[C@@H](O)C(=O)N[C@@H](COC1OC(CO)C(O)C(OC2OC([C@H](O)CO)C(O)C2O)C1O)[C@H](O)[C@H](O)CCCCCCCCCCCCCC (stereo partly drawn) [Galβ1-3Galα1-1′Cer, (2S,3S,4R)-2-amino-1-O-(β-D-galactofuranosyl-(1-4)-α-D-galactopyranosyl)-N-[(R)-2-hydroxytetracosanoyl]-1,3,4-octadecanetriol]
proliferation of Vα14 NKT cells, compared with α-GalCer (Vα14 NKT cells): stimulate proliferation of Vα14 NKT cells in mice, although with lower efficiency

CCCCCCCCCCCCCCCCCCCCCCCCCC(=O)N[C@@H](CO[C@H]1O[C@H](CO)[C@H](O)[C@H](O)[C@H]1O)[C@H](O)[C@H](O)CCCCCCCCCCCCCC [α-GalCer, (2S,3S,4R)-1—O-(α-D-galactopyranosyl)-2-(N-hexacosanoylamino)-1,3,4-octadecanetriol]
mice bearing tumors cured (B 16-bearing mice; 100 μg/kg KRN7000): 60%
antimetastatic activities vs OK432, Lentinan and Mitomycin C (B 16-bearing mice; B 16-bearing mice): stronger antimetastatic activities
liver enzyme activities [1]: transient elevation of liver enzyme activities
anti-malaria activity (inhibition of intra-hepatocytic stages), P. yoeli (P. yoeli; mice): strong anti-malaria activity
parasite development in the liver of mice lacking either IFN-γ or the IFN-γ receptor (P. yoeli): unable to inhibit parasite development
parasites in the liver, α-GalCer two days prior to challenge with live sporozoites (P. yoeli): completely eliminates the parasites from the liver
protection against malaria in mice lacking either CD1d or Vα14 NKT cells (P. yoeli): failed to protect
complications in human trials [2]: without a notable complication
parasite load in the livers, times smaller than with γ-spz alone (P. yoelii sporozoites [3]; BALB/c mice, 2 μg α-GalCer with 1×10^4 γ-spz i.v., challenge 1×10^4 live sporozoites two weeks later): 10 times
level of protective anti-malaria immunity, α-GalCer on the same day as γ-spz (P. yoelii sporozoites [3]; [11]): highest level of protective anti-malaria immunity
level of protective immunity, α-GalCer two days after γ-spz immunization (P. yoelii sporozoites [3]; [11]): did not significantly enhance
protective immunity, α-GalCer two days prior to γ-spz immunization (P. yoelii sporozoites [3]; [11]): completely abolished; also recorded: almost completely abolishes
protection augmented relative to control, AdPyCS (P. yoelii sporozoites [3]; BALB/c mice, s.c. sub-optimal dose AdPyCS with α-GalCer same day): ~10 times
protection enhanced, SIN(Mal) (P. yoelii sporozoites [3]; BALB/c mice, s.c. sub-optimal dose SIN(Mal) with α-GalCer same day): 3 times
γ-spz-induced protective immunity in CD1d-deficient mice (P. yoelii sporozoites [3]; CD1d-deficient mice, BALB/c background, 1×10^4 γ-spz with α-GalCer): failed to enhance
γ-spz-induced protective immunity in Jα281-deficient mice (P. yoelii sporozoites [3]; Jα281-deficient mice (lack Vα14 NKT cells), 1×10^4 γ-spz with α-GalCer): failed to enhance
anti-malaria activity (inhibition of intra-hepatocytic stages), P. berghei (P. berghei): strong anti-malaria activity
α-GalCer-treated, sporozoite-immunized mice protected, experiment 1 (P. yoelii sporozoites [4]; 1×10^4 γ-spz, challenge with 50 viable sporozoites two weeks later): nine out of ten
α-GalCer-treated, sporozoite-immunized mice protected, experiment 2 (P. yoelii sporozoites [4]; 1×10^5 γ-spz, challenge with 50 live sporozoites four weeks later): nine out of ten
% protection (no parasitemia) (P. yoelii sporozoites [4]; [12]): 0%
Number of mice protected/number challenged (P. yoelii sporozoites [4]; [12]): 0/30
α-GalCer-treated, γ-spz-immunized mice protected (P. yoelii sporozoites [4]; BALB/c, 1×10^4 γ-spz i.v., challenge 50 viable sporozoites two weeks later): 28 out of 30
protective effect of sub-optimal dose of AdPyCS with α-GalCer (P. yoelii sporozoites [4]; BALB/c, 1×10^7 p.f.u. AdPyCS s.c., challenge 50 viable sporozoites): strongly enhanced
protection by α-GalCer alone (P. yoelii sporozoites [4]; BALB/c, no immunogen, challenge 50 viable sporozoites): failed to protect
IgE, IgG1, IgG2a or IgM isotype profiles of anti-CS antibodies, α-GalCer-treated vs untreated [5]: no significant differences
titers of antibody against the CS protein (ELISA), α-GalCer vs no α-GalCer [5]: identical
toxicity in rodents [6]: does not induce toxicity
level of HIV-specific CD8+ T cell response vs immunized without α-GalCer [7]: ~3 times
titers of anti-sporozoite antibodies (IFA), α-GalCer vs no α-GalCer (P. yoelii sporozoites [8]): identical
toxicity in monkeys [9]: does not induce toxicity
CD8+ T cell anti-influenza response [10]: significantly enhances

CCCCCCCCCCCCCCCCCCCCCCCCCC(=O)N[C@@H](CO[C@H]1O[C@H](CO)[C@@H](O)[C@H](O)[C@H]1O)[C@H](O)[C@H](O)CCCCCCCCCCCCCC [α-GlcCer, (2S,3S,4R)-1—O-(α-D-glucopyranosyl)-N-hexacosanoyl-2-amino-1,3,4-octadecanetriol]
proliferation of Vα14 NKT cells, compared with α-GalCer (Vα14 NKT cells): stimulate proliferation of Vα14 NKT cells in mice, although with lower efficiency

— patent US7488491B2, “Use of glycosylceramides as adjuvants for vaccines against infections and cancer” (New York University, priority 2001, dated 2009)
